# Laboratory results reported in patent publication US11759455B2, “Substituted 1H-imidazo[4,5-b]pyridin-2(3H)-ones and their use as GLUN2B receptor modulators” (JANSSEN PHARMACEUTICA NV, priority 2016, dated 2023).
# Biological target: T1, human GluN1/GluN2B NMDA receptors (Homo sapiens, UniProt Q13224)
# T1 construct: expressed in transfected cells
# Test: Cell-based calcium flux (FLIPR) assay on cloned human NR1/NR2B ion channels expressed in mammalian cells (standard and HTS buffer variants);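 note: stable Tet-On inducible cell line, Ca2+ influx triggered by glutamate at about EC40 plus 10 µM glycine, fluorescent dye read-out over 5 min, normalized to control wells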
# Conditions: standard assay buffer (0.5 mM MgCl2 dye loading; 137 mM NaCl, 4 mM KCl assay buffer), human GluN1/GluN2B cells, read-out: NR2B IC50 (μM) standard assay
# T1 sequence (Q13224 27-1484, other chains not shown): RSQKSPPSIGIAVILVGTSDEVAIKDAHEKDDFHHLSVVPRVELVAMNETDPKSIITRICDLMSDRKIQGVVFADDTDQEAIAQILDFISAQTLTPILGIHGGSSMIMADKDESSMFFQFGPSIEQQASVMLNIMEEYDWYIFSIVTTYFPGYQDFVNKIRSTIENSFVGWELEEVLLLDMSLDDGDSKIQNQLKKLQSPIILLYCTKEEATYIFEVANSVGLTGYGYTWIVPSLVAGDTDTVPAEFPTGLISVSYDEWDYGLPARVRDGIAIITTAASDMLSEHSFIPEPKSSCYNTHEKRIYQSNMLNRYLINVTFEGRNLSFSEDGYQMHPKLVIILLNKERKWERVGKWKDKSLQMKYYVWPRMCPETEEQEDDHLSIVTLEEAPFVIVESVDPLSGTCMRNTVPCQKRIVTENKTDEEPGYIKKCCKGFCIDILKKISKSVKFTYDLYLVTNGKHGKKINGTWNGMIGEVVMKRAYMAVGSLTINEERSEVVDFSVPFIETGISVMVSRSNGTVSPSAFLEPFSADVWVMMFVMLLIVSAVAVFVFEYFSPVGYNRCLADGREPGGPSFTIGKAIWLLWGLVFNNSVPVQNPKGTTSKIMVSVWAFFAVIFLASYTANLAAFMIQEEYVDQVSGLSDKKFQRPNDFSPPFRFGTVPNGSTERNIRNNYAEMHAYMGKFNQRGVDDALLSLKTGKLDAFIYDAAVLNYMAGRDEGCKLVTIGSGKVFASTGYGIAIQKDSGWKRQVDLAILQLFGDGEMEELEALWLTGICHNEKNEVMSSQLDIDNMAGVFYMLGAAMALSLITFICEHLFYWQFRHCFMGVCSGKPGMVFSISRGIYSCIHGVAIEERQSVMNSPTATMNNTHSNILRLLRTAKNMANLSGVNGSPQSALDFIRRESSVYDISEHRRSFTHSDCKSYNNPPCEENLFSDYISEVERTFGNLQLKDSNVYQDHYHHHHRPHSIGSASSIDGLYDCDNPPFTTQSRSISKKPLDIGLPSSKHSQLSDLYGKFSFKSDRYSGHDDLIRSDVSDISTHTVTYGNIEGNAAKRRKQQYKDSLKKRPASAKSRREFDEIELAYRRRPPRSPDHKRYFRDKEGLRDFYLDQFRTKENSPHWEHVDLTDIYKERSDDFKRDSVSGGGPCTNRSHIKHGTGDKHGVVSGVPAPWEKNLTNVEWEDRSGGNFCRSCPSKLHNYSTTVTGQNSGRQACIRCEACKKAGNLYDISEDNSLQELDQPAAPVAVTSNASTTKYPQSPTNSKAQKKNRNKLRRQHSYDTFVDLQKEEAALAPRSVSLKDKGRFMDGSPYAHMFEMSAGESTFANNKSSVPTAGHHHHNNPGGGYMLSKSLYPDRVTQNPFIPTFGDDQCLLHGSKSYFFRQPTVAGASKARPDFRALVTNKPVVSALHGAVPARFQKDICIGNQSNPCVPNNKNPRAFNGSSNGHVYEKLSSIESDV
row,Structure (SMILES),IC50 [µM]
1,"CCc1ccc(-c2cnc3c(c2)n(CC(=O)N(C)C)c(=O)n3C)s1 [Example 79, 2-[6-(5-Ethyl-2-thienyl)-3-methyl-2-oxo-imidazo[4,5-b]pyridin-1-yl]-N,N-dimethyl-acetamide]",0.031
2,"Cc1csc(-c2cnc3c(c2)n(CC(=O)N(C)C)c(=O)n3C)c1 [Example 80, N,N-Dimethyl-2-[3-methyl-6-(4-methyl-2-thienyl)-2-oxo-imidazo[4,5-b]pyridin-1-yl]acetamide]",0.03
3,"Cn1c(=O)n(CC(=O)N2CCC2)c2cc(-c3ccc(F)s3)cnc21 [Example 81, 1-[2-(Azetidin-1-yl)-2-oxo-ethyl]-6-(5-fluoro-2-thienyl)-3-methyl-imidazo[4,5-b]pyridin-2-one]",0.031
4,"Cn1c(=O)n(CC(=O)N2CC(F)C2)c2cc(-c3ccc(F)s3)cnc21 [Example 83, 1-[2-(3-Fluoroazetidin-1-yl)-2-oxo-ethyl]-6-(5-fluoro-2-thienyl)-3-methyl-imidazo[4,5-b]pyridin-2-one]",0.033
5,"Cn1c(=O)n(Cc2cccnn2)c2cc(-c3ccc(C(F)(F)F)s3)cnc21 [Example 84, 3-Methyl-1-(pyridazin-3-ylmethyl)-6-[5-(trifluoromethyl)-2-thienyl]imidazo[4,5-b]pyridin-2-one]",0.03
6,"Cn1c(=O)n(Cc2cccnn2)c2cc(-c3ccc(F)s3)cnc21 [Example 85, 6-(5-Fluoro-2-thienyl)-3-methyl-1-(pyridazin-3-ylmethyl)imidazo[4,5-b]pyridin-2-one]",0.157
7,"Cc1csc(-c2cnc3c(c2)n(CC(=O)N2CC(F)C2)c(=O)n3C)n1 [Example 86, 1-[2-(3-Fluoroazetidin-1-yl)-2-oxo-ethyl]-3-methyl-6-(4-methylthiazol-2-yl)imidazo[4,5-b]pyridin-2-one]",1.6
8,"CCc1ccc(-c2cnc3c(c2)n(CC(=O)N2CC(F)C2)c(=O)n3C)s1 [Example 88, 6-(5-Ethyl-2-thienyl)-1-[2-(3-fluoroazetidin-1-yl)-2-oxo-ethyl]-3-methyl-imidazo[4,5-b]pyridin-2-one]",0.02
9,"CN(C)C(=O)Cn1c(=O)n(C)c2ncc(-c3ccc(CO)s3)cc21 [Example 91, 2-[6-[5-(Hydroxymethyl)-2-thienyl]-3-methyl-2-oxo-imidazo[4,5-b]pyridin-1-yl]-N,N-dimethyl-acetamide]",1.7
10,"Cn1c(=O)n(CC(=O)N2CCC2)c2cc(-c3ccc(C(F)F)s3)cnc21 [Example 93, 1-[2-(Azetidin-1-yl)-2-oxo-ethyl]-6-[5-(difluoromethyl)-2-thienyl]-3-methyl-imidazo[4,5-b]pyridin-2-one]",0.006
11,"CN(C)C(=O)Cn1c(=O)n(C)c2ncc(-c3ccc(C(F)F)s3)cc21 [Example 94, 2-[6-[5-(Difluoromethyl)-2-thienyl]-3-methyl-2-oxo-imidazo[4,5-b]pyridin-1-yl]-N,N-dimethyl-acetamide]",0.017
12,"CN(C)C(=O)Cn1c(=O)n(C)c2ncc(-c3ccsc3C(F)(F)F)cc21 [Example 96, N,N-Dimethyl-2-[3-methyl-2-oxo-6-[2-(trifluoromethyl)-3-thienyl]imidazo[4,5-b]pyridin-1-yl]acetamide]",0.522
13,"Cn1c(=O)n(Cc2cccnn2)c2cc(-c3ccc(C(F)F)s3)cnc21 [Example 100, 6-[5-(Difluoromethyl)-2-thienyl]-3-methyl-1-(pyridazin-3-ylmethyl)imidazo[4,5-b]pyridin-2-one]",0.033
14,"CN(C)C(=O)Cn1c(=O)n(C)c2ncc(-c3csc(C(F)(F)F)c3)cc21 [Example 101, N,N-Dimethyl-2-[3-methyl-2-oxo-6-[5-(trifluoromethyl)-3-thienyl]imidazo[4,5-b]pyridin-1-yl]acetamide]",0.019
15,"Cn1c(=O)n(Cc2cccnn2)c2cc(-c3csc(C(F)(F)F)c3)cnc21 [Example 103, 3-Methyl-1-(pyridazin-3-ylmethyl)-6-[5-(trifluoromethyl)-3-thienyl]imidazo[4,5-b]pyridin-2-one]",0.017
16,"Cn1c(=O)n(CC(=O)N2CCC2)c2cc(-c3ccc(C4CC4)s3)cnc21 [Example 105, 1-[2-(Azetidin-1-yl)-2-oxo-ethyl]-6-(5-cyclopropyl-2-thienyl)-3-methyl-imidazo[4,5-b]pyridin-2-one]",0.081
17,"Cn1c(=O)n(CC(=O)N2CC(F)C2)c2cc(-c3ccc(C4CC4)s3)cnc21 [Example 106, 6-(5-Cyclopropyl-2-thienyl)-1-[2-(3-fluoroazetidin-1-yl)-2-oxo-ethyl]-3-methyl-imidazo[4,5-b]pyridin-2-one]",0.039
18,"Cn1c(=O)n(CC(=O)N2CC(F)C2)c2cc(-c3csc(C(F)(F)F)n3)cnc21 [Example 109, 1-[2-(3-Fluoroazetidin-1-yl)-2-oxo-ethyl]-3-methyl-6-[2-(trifluoromethyl)thiazol-4-yl]imidazo[4,5-b]pyridin-2-one]",0.04
19,"Cn1c(=O)n(CC(=O)N2CCC2)c2cc(-c3ccc(C(F)(F)C(F)(F)F)s3)cnc21 [Example 111, 1-[2-(Azetidin-1-yl)-2-oxo-ethyl]-3-methyl-6-[5-(1,1,2,2,2-pentafluoroethyl)-2-thienyl]imidazo[4,5-b]pyridin-2-one]",0.037
20,"Cc1ncc(-c2cnc3c(c2)n(CC(=O)N2CCC2)c(=O)n3C)s1 [Example 112, 1-[2-(Azetidin-1-yl)-2-oxo-ethyl]-3-methyl-6-(2-methylthiazol-5-yl)imidazo[4,5-b]pyridin-2-one]",5.1
21,"Cc1ncc(-c2cnc3c(c2)n(CC(=O)N2CC(F)C2)c(=O)n3C)s1 [Example 113, 1-[2-(3-Fluoroazetidin-1-yl)-2-oxo-ethyl]-3-methyl-6-(2-methylthiazol-5-yl)imidazo[4,5-b]pyridin-2-one]",5.36
22,"Cc1ncc(-c2cnc3c(c2)n(CC(=O)N(C)C)c(=O)n3C)s1 [Example 114, N,N-Dimethyl-2-[3-methyl-6-(2-methylthiazol-5-yl)-2-oxo-imidazo[4,5-b]pyridin-1-yl]acetamide]",11.7

# Next, values leading:
row,IC50 [µM],Structure (SMILES)
1,0.043,"Cc1ccc(-c2cnc3c(c2)n(CC(=O)N(C)C)c(=O)n3C)s1 [Example 78, N,N-Dimethyl-2-[3-methyl-6-(5-methyl-2-thienyl)-2-oxo-imidazo[4,5-b]pyridin-1-yl]acetamide]"
2,0.154,"CN(C)C(=O)Cn1c(=O)n(C)c2ncc(-c3ccc(F)s3)cc21 [Example 82, 2-[6-(5-Fluoro-2-thienyl)-3-methyl-2-oxo-imidazo[4,5-b]pyridin-1-yl]-N,N-dimethyl-acetamide]"
3,0.021,"CCc1ccc(-c2cnc3c(c2)n(CC(=O)N2CCC2)c(=O)n3C)s1 [Example 87, 1-[2-(Azetidin-1-yl)-2-oxo-ethyl]-6-(5-ethyl-2-thienyl)-3-methyl-imidazo[4,5-b]pyridin-2-one]"
4,0.549,"Cn1c(=O)n(CC(=O)N2CCC2)c2cc(-c3ccc(CO)s3)cnc21 [Example 89, 1-[2-(Azetidin-1-yl)-2-oxo-ethyl]-6-[5-(hydroxymethyl)-2-thienyl]-3-methyl-imidazo[4,5-b]pyridin-2-one]"
5,0.915,"Cn1c(=O)n(CC(=O)N2CC(F)C2)c2cc(-c3ccc(CO)s3)cnc21 [Example 90, 1-[2-(3-Fluoroazetidin-1-yl)-2-oxo-ethyl]-6-[5-(hydroxymethyl)-2-thienyl]-3-methyl-imidazo[4,5-b]pyridin-2-one]"
6,0.249,"Cn1c(=O)n(CC(=O)N2CC(F)C2)c2cc(-c3ccsc3C(F)(F)F)cnc21 [Example 92, 1-[2-(3-Fluoroazetidin-1-yl)-2-oxo-ethyl]-3-methyl-6-[2-(trifluoromethyl)-3-thienyl]imidazo[4,5-b]pyridin-2-one]"
7,0.096,"Cn1c(=O)n(CC(=O)N2CCC2)c2cc(-c3ccsc3C(F)(F)F)cnc21 [Example 95, 1-[2-(Azetidin-1-yl)-2-oxo-ethyl]-3-methyl-6-[2-(trifluoromethyl)-3-thienyl]imidazo[4,5-b]pyridin-2-one]"
8,0.015,"CN(C)C(=O)Cn1c(=O)n(C)c2ncc(-c3csc(C(F)F)c3)cc21 [Example 97, 2-[6-[5-(Difluoromethyl)-3-thienyl]-3-methyl-2-oxo-imidazo[4,5-b]pyridin-1-yl]-N,N-dimethyl-acetamide]"
9,0.013,"Cn1c(=O)n(CC(=O)N2CCC2)c2cc(-c3csc(C(F)F)c3)cnc21 [Example 98, 1-[2-(Azetidin-1-yl)-2-oxo-ethyl]-6-[5-(difluoromethyl)-3-thienyl]-3-methyl-imidazo[4,5-b]pyridin-2-one]"
10,0.048,"Cn1c(=O)n(CC(=O)N2CCC2)c2cc(-c3csc(C(F)(F)F)c3)cnc21 [Example 104, 1-[2-(Azetidin-1-yl)-2-oxo-ethyl]-3-methyl-6-[5-(trifluoromethyl)-3-thienyl]imidazo[4,5-b]pyridin-2-one]"
11,0.087,"Cn1c(=O)n(CC(=O)N2CCC2)c2cc(-c3csc(C(F)(F)F)n3)cnc21 [Example 107, 1-[2-(Azetidin-1-yl)-2-oxo-ethyl]-3-methyl-6-[2-(trifluoromethyl)thiazol-4-yl]imidazo[4,5-b]pyridin-2-one]"
12,0.047,"CN(C)C(=O)Cn1c(=O)n(C)c2ncc(-c3csc(C(F)(F)F)n3)cc21 [Example 108, N,N-Dimethyl-2-[3-methyl-2-oxo-6-[2-(trifluoromethyl)thiazol-4-yl]imidazo[4,5-b]pyridin-1-yl]acetamide]"
13,0.04,"CN(C)C(=O)Cn1c(=O)n(C)c2ncc(-c3ccc(C4CC4)s3)cc21 [Example 110, 2-[6-(5-Cyclopropyl-2-thienyl)-3-methyl-2-oxo-imidazo[4,5-b]pyridin-1-yl]-N,N-dimethyl-acetamide]"
14,0.82,"Cn1c(=O)n(CC(=O)N2CCC2)c2cc(-c3cnc(C(F)(F)F)s3)cnc21 [Example 115, 1-[2-(Azetidin-1-yl)-2-oxo-ethyl]-3-methyl-6-[2-(trifluoromethyl)thiazol-5-yl]imidazo[4,5-b]pyridin-2-one]"
15,0.705,"Cn1c(=O)n(CC(=O)N2CC(F)C2)c2cc(-c3cnc(C(F)(F)F)s3)cnc21 [Example 116, 1-[2-(3-Fluoroazetidin-1-yl)-2-oxo-ethyl]-3-methyl-6-[2-(trifluoromethyl)thiazol-5-yl]imidazo[4,5-b]pyridin-2-one]"
